Here are results for five compounds from patent publication US20090036496A1, “Treatment of Stress Urinary Incontinence and Mixed Urinary Incontinence” (UROGENE, priority 2005, published 2009).

For assay [1], the system named is alpha1-adrenergic receptors. As to the kind of experiment: Contraction of isolated rabbit urethra rings by activation of alpha1-adrenergic receptors. As to conditions: for contraction of the urethra induced by the compound itself: cumulative concentrations 0.01 to 100 μM, relative to norepinephrine 30 μM. As to the method: The compounds were tested in ex vivo experiments carried out on rabbit urethra.
The tests were carried out on isolates of rabbit urethra which were obtained as follows.
The whole urethra was excised and washed in order to remove the adipose and connective tissues, and then cut into rings approximately 4 mm in diameter, one at the median level, the other at the distal level of the urethra.
In this trial, the ability of each of the four compounds mentioned above to induce, by themselves, a contraction of the urethra by activation of the alpha1-adrenergic receptors, compared with norepinephrine used as a positive control, is measured.
The protocol followed is an adaptation of the protocol described by Van der Graaf et al. (Eur. J. Pharmacol., 327: 25-32, 1997).
Krebs-Henseleit solution was modified by adding propanolol (1 μM), normetanephrin (1 μM), desipramine (0.1 μM) and deoxycorticosterone (3 μM) in order to block the beta-adrenergic receptors, catechol-O-methyltransferase and the uptake of noradrenalin type 1 (neuronal) and 2 (extraneuronal), respectively.
An initial force of 1 g is applied to the samples. After a period of 60 minutes of equilibration, the rings are brought into contact with norepinephrine (30 μM), twice consecutively, separated by washing for 60 minutes. The rings that have a contractile response of less than 1 g are discarded and new rings are optionally prepared. After washing for 30 minutes, the compound tested is added at cumulative concentrations ranging from 0.01 to 100 μM. In parallel, the solvent of the compound (distilled water or DMSO) is tested thereon so as to obtain a control curve.
In the case of HP748, an additional experiment was carried out in which prazosin (1 μM), an alpha1-adrenergic receptor antagonist, was incubated for 30 minutes before the addition of HP748.
The results are expressed as percentage of the contraction induced by the second addition of norepinephrine at 30 μM as a function of the concentration of the compound. The latter is represented on a logarithmic scale, by the logarithm of the value in mol/l.

In assay [2] the test system is female New Zealand white rabbits. Put plainly: Continuous cystometry under irritated bladder conditions (0.5% acetic acid infusion). The class given is in vivo, rabbit. The following applies: for bladder capacity: p<0.01. As to the method: (§1) The effects of cumulative doses of HP749 (0, 1, 3 and 5 mg/kg i.v.), or duloxetine (0, 1 and 2 mg/kg i.v.) on the electromyographic and cystometric parameters were evaluated in anaesthetized female New Zealand white rabbits (n=12/group) under irritated conditions (continuous transvesical infusion of 0.5% acetic acid). The study was performed in accordance with the ethical standards of the Helsinki declaration.
Continuous cystometry was performed with the animal supine using a subcutaneous cystostomy. A T tube was connected to the multiperforable plug using a 20-gauge needle, online with a TRA021 pressure transducer and a micro-injection pump. Room-temperature diluted acetic acid was infused into the bladder at a rate of 1.4 ml/hr to elicit repetitive voidings, which allowed collection of data for a large number of voiding cycles. Continuous cystometry was recorded on a PowerLab 4/25.
(§2) At the beginning of the cystometry the bladder was emptied. The liquid infusion to stabilize the cyclic voidings was maintained at least for 60 minutes, continuously recording the cystometrogram. Then, placebo was intravenously administered, and the cystometrogram was recorded for other 40 minutes. Consecutive doses of duloxetine or HP749 were then administered with an interval of 40 minutes.
(§3) An intravenous cannula was connected to the ear vein for vehicle (saline) or drug administration. The drugs were freshly prepared before each experiment in saline. Drugs were administered intravenously in a volume of 1 ml. followed by 1 ml. flush of physiological saline.
(§4) All values were expressed as the mean±SEM. Duloxetine or HP749 effects were analyzed and compared with control (saline) values using Wilcoxon rank test. Mann-Whitney U test was performed to compare the effects of duloxetine and HP-749. Statistical significance was considered at p<0.05.

For assay [3] the test system is unchanged. As to the kind of experiment: Electromyography of striated sphincter (SS-EMG) under irritated bladder conditions. It counts as in vivo, rabbit. Here is the method: as §1, §2
Two electrodes (30-gauge needle) were placed percutaneously into the striated anal sphincter approximately 5-10 mm. lateral to the anus. […] SS-EMG was continuously recorded during the cystometry.
as §3, §4

Turning to `Cc1cn(Nc2ccncc2F)c2ccccc12` [HP183, reference compound], the “contraction of the urethra induced by the compound itself” value (shortened to “contraction of the urethra induced”) in assay [1] was “no effect”.
On the same count and under the same terms, with `CCCN(c1ccncc1F)n1cc(C)c2ccccc21` [HP184, reference compound] the entry was “no effect”.
In the case of `c1ccc2c(c1)ccn2Nc1ccncc1` [HP748, N-(4-pyridinyl)-1H-indol-1-amine], in assay [1], the “contraction of the urethra induced” value is reported as “induces a significant contraction”. In assay [1] (preincubation with 1 μM of prazosin for 30 minutes), the “contraction of the urethra after preincubation with prazosin” value is “completely blocked”.
On to `CCCN(c1ccncc1)n1ccc2ccccc21` [HP749, N-propyl-N-(4-pyridinyl)-1H-indol-1-amine], for which the “contraction of the urethra induced” value in assay [1] is listed as “no effect”. The bladder capacity was 172 % of the control in assay [2] (1 mg/kg i.v.) and 235 % of the control in assay [2] (5 mg/kg i.v.). For the same compound, the “effect on bladder capacity compared with duloxetine” value in assay [2] (Mann-Whitney U test, p<0.05) is reported as “significantly higher than those of duloxetine”. Further, the “effect on SS-EMG compared with duloxetine” value in assay [3] (Mann-Whitney U test, p<0.05) is reported as “significantly higher than those of duloxetine”. The compound also gave an SS-EMG increase in assay [3] (all doses tested (1, 3 and 5 mg/kg i.v.), p<0.01) of 2.5 fold.
Turning to `CNCC[C@H](Oc1cccc2ccccc12)c1cccs1` [duloxetine, reference compound], the bladder capacity result in assay [2] (duloxetine 1 and 2 mg/kg i.v. cumulative) is “increased dose-dependently”. In addition, the SS-EMG activity entry in assay [3] (2 mg./kg i.v., p<0.01) is given as “significantly increased”.
